Assay results reported in patent publication US10227337B2, “Evaluation probe for central nervous system permeability, evaluation method for central nervous system permeability, and screening method using an evaluation probe for central nervous system permeability” (CANON KABUSHIKI KAISHA, priority 2011, dated 2019).

Experiments:
[1] = Measurement of fluorescence characteristics of dye compounds; assay type: physicochemical; conditions: 5-μM solution in DMSO
Source text: 5-μM solutions of Dye compounds 1 to 46 in DMSO were each prepared and measured for its excitation wavelength and fluorescence emission wavelength with an FL4500 fluorescence spectrometer manufactured by Hitachi High-Technologies Corporation.

[2] = tested on: cranial nerve tissue (brain) of juvenile zebrafish; test: Example 3: brain fluorescence of juvenile zebrafish exposed to compound (23) probe liquid with or without MK571 and FTC; assay type: in vivo; conditions: concluded from single versus combined MK571 and FTC
Description: A probe liquid 6 was obtained by changing the compound (8) used in the probe liquid 1 of Example 1 to the compound (23). Further, a probe liquid 7 was obtained by adding MK571 and FTC, each at 30 μM, as a transporter inhibitor.
4 mL of the probe liquid 6 and 7 and each of 20 juvenile zebrafish on 7 days post fertilization were each loaded into any well of a 6-well multiplate, and exposure was started. The zebrafish during exposure were each taken out of the well 60 minutes, 180 minutes and 360 minutes after the starting of the exposure, and in accordance with the same operation as in Example 1, fluorescence images of a cranial nerve tissue and a blood vessel on the zebrafish body side were captured and fluorescence intensities in the CNS tissue and the blood vessel were evaluated.

Excitation wavelength λex [1] [nm]	Fluorescence wavelength λem [1] [nm]	transport by transporters (substrate property) [2]	SMILES
518	647		CSc1ccc(N2c3ccc(/C=C4/SC(=S)N(CCC(=O)O)C4=O)cc3C3CCCC32)cc1 (centres unmarked) [Compound 12]
520	617		CCN1C(=O)/C(=c2\s/c(=C/c3cc(Br)c4c(c3)C3CCCC3N4c3ccc(Br)cc3)c(=O)n2CC(=O)O)SC1=S (centres unmarked) [Compound 35]
543	636		C=CCN1C(=O)/C(=c2\s/c(=C/c3ccc4c(c3)C3CCCC3N4c3ccccc3)c(=O)n2CC(=O)O)SC1=S (centres unmarked) [Compound 42]
517	638		CSc1ccc(N2c3ccc(/C=C4/SC(=S)N(CC(=O)O)C4=O)cc3C3CCCC32)cc1 (centres unmarked) [Compound 15]
511	594		CCN1CCc2cc(/C=C3/SC(=S)N(CC(=O)O)C3=O)ccc21 [Compound 19]
513	589		CCN1c2ccc(/C=C3/SC(=S)N(CCCCCC(=O)O)C3=O)cc2C2CCCC21 (centres unmarked) [Compound 45]
521	646		COc1ccc2cc(N3c4ccc(/C=C5/SC(=S)N(CCC(=O)O)C5=O)cc4C4CCCC43)ccc2c1 (centres unmarked) [Compound 5]
544	658		CCN1C(=O)/C(=c2\s/c(=C/c3ccc4c(c3)C3CCCC3N4c3ccc(SC)cc3)c(=O)n2CC(=O)O)SC1=S (centres unmarked) [Compound 32]
494	551		CCN1C(=O)/C(=c2\s/c(=C/c3ccc4c(c3)c3ccccc3n4CC)c(=O)n2CC(=O)O)SC1=S [Compound 40]
505	612		O=C(O)CN1C(=O)/C(=C\c2ccc3c(c2)CCN3c2ccccc2)SC1=S [Compound 22]
509	604		CSc1cccc(N2c3ccc(/C=C4/SC(=S)N(CC(=O)O)C4=O)cc3C3CCCC32)c1 (centres unmarked) [Compound 18]
486	578		O=C(O)CN1C(=O)/C(=C\c2cc(Br)c3c(c2)C2CCCC2N3Cc2ccccc2)SC1=S (centres unmarked) [Compound 24]
453	536		CCn1c2ccccc2c2cc(/C=C3/SC(=S)N(CC(=O)O)C3=O)ccc21 [Compound 25]

The next lines start with the compound.

SMILES	Excitation wavelength λex [1] [nm]	Fluorescence wavelength λem [1] [nm]	transport by transporters (substrate property) [2]
CCN1C(=O)/C(=c2\s/c(=C/c3ccc4c(c3)CCN4CC)c(=O)n2CC(=O)O)SC1=S [Compound 38]	541	642	
CCN1c2ccc(/C=C3/SC(=S)N(CCC(=O)O)C3=O)cc2CC1C (centres unmarked) [Compound 7]	509	593	
CCN1C(=O)/C(=c2\s/c(=C/c3ccc4c(c3)CCN4c3ccccc3)c(=O)n2CC(=O)O)SC1=S [Compound 39]	536	640	
CCN1c2ccc(/C=C3/SC(=S)N(CCCCCCCCCCC(=O)O)C3=O)cc2C2CCCC21 (centres unmarked) [Compound 46]	516	585	
CCN1C(=O)/C(=c2\s/c(=C/c3cc(Br)c4c(c3)C3CCCC3N4Cc3ccccc3)c(=O)n2CC(=O)O)SC1=S (centres unmarked) [Compound 37]	525	616	
CCCCCCCCN1C(=O)/C(=c2\s/c(=C/c3ccc4c(c3)C3CCCC3N4c3ccc(OC)cc3)c(=O)n2CC(=O)OCC)SC1=S (centres unmarked) [Compound 43]	552	668	
CN1c2ccc(/C=C3/SC(=S)N(CCC(=O)O)C3=O)cc2C2CCCC21 (centres unmarked) [Compound 6]	517	590	
CCN1c2ccc(/C=C3/SC(=S)N(CC(=O)O)C3=O)cc2CC1C (centres unmarked) [Compound 16]	510	590	
O=C(O)CCN1C(=O)/C(=C\c2cc(Br)c3c(c2)C2CCCC2N3c2ccc(Br)cc2)SC1=S (centres unmarked) [Compound 1]	474	590	
CCN1C(=O)/C(=c2\s/c(=C/c3ccc4c(c3)C3CCCC3N4c3ccc4cc(OC)ccc4c3)c(=O)n2CC(=O)O)SC1=S (centres unmarked) [Compound 34]	543	649	
CCn1c2ccccc2c2cc(/C=C3/SC(=S)N(CCC(=O)O)C3=O)ccc21 [Compound 9]	452	540	
CCN1C(=O)/C(=c2\s/c(=C/c3ccc4c(c3)C3CCCC3N4c3ccc(OC)cc3)c(=O)n2CC(=O)O)SC1=S (centres unmarked) [Compound 31]	550	650	
CCN1C(=O)/C(=c2\s/c(=C/c3ccc4c(c3)C3CCCC3N4c3cccc(SC)c3)c(=O)n2CC(=O)O)SC1=S (centres unmarked) [Compound 33]	536	632	
C=CCN1C(=O)/C(=c2\s/c(=C/c3ccc4c(c3)C3CCCC3N4c3ccc(OC)cc3)c(=O)n2CC(=O)O)SC1=S (centres unmarked) [Compound 41]	515	624	
COc1ccc(N2c3ccc(/C=C4/SC(=S)N(CC(=O)O)C4=O)cc3C3CCCC32)cc1 (centres unmarked) [Compound 23]	518	637	transported by both of MRP and BCRP
O=C(O)CN1C(=O)/C(=C\c2ccc3c(c2)C2CCCC2N3c2ccccc2)SC1=S (centres unmarked) [Compound 17]	508	604	

SMILES	Excitation wavelength λex [1] [nm]	Fluorescence wavelength λem [1] [nm]	transport by transporters (substrate property) [2]
CCN1c2ccc(/C=C3/SC(=S)N(CCC(=O)O)C3=O)cc2C2CCCC21 (centres unmarked) [Compound 13]	513	587	
CCN1c2ccc(/C=C3/SC(=S)N(CC(=O)O)C3=O)cc2C2CCCC21 (centres unmarked) [Compound 14]	507	585	
CCCCCN1C(=O)/C(=c2\s/c(=C/c3ccc4c(c3)C3CCCC3N4c3ccc(OC)cc3)c(=O)n2CC(=O)OCC)SC1=S (centres unmarked) [Compound 44]	548	656	
CCOC(=O)CCN1C(=O)/C(=C\c2ccc3c(c2)C2CCCC2N3CC)SC1=S (centres unmarked) [Compound 27]	518	590	
O=C(O)CN1C(=O)/C(=C\c2cc(Br)c3c(c2)C2CCCC2N3c2ccc(Br)cc2)SC1=S (centres unmarked) [Compound 21]	476	580	
O=C(O)CCN1C(=O)/C(=C\c2ccc3c(c2)C2CCCC2N3Cc2ccccc2)SC1=S (centres unmarked) [Compound 3]	510	584	
COc1ccc2cc(N3c4ccc(/C=C5/SC(=S)N(CC(=O)O)C5=O)cc4C4CCCC43)ccc2c1 (centres unmarked) [Compound 26]	525	646	
CCN1c2ccc(/C=C/C=C3/SC(=S)N(CCC(=O)O)C3=O)cc2C2CCCC21 (centres unmarked) [Compound 11]	564	671	
O=C(O)CCN1C(=O)/C(=C\c2ccc3c(c2)C2CCCC2N3c2ccccc2)SC1=S (centres unmarked) [Compound 4]	502	604	
COc1ccc(N2c3ccc(/C=C4/SC(=S)N(CCC(=O)O)C4=O)cc3C3CCCC32)cc1 (centres unmarked) [Compound 2]	521	634	
CCCN1c2ccc(/C=C3/SC(=S)N(CCC(=O)O)C3=O)cc2C2CCCC21 (centres unmarked) [Compound 10]	519	592	
O=C(O)CN1C(=O)/C(=C\c2ccc3c(c2)C2CCCC2N3Cc2ccccc2)SC1=S (centres unmarked) [Compound 20]	506	581	
CCN1CCc2cc(/C=C3/SC(=S)N(CCC(=O)O)C3=O)ccc21 [Compound 8]	510	597	
CCN1C(=O)/C(=c2\s/c(=C/c3ccc4c(c3)CC(C)N4CC)c(=O)n2CC(=O)O)SC1=S (centres unmarked) [Compound 36]	541	640	
CCN1C(=O)/C(=c2\s/c(=C/c3ccc4c(c3)C3CCCC3N4c3ccccc3)c(=O)n2CC(=O)O)SC1=S (centres unmarked) [Compound 29]	525	610	
